Measurements: paper PMC13095444, “Discovery of RGS2-FBXO44 interaction inhibitors using a cell-based NanoBit assay” (Molecular Pharmacology, 2025)

B1: LgBiT-FBXO44 (natural protein, UniProt Q9H4M3 1-255, looked up)
chain: MAVGNINELPENILLELFTHVPARQLLLNCRLVCSLWRDLIDLVTLWKRKCLREGFITEDWDQPVADWKIFYFLRSLHRNLLHNPCAEEGFEFWSLDVNGGDEWKVEDLSRDQRKEFPNDQVKKYFVTSYYTCLKSQVVDLKAEGYWEELMDTTRPDIEVKDWFAARPDCGSKYQLCVQLLSSAHAPLGTFQPDPATIQQKSDAKWREVSHTFSNYPPGVRYIWFQHGGVDTHYWAGWYGPRVTNSSITIGPPLP
notes: F-box Only Protein 44 (FBXO44); cloned in-house into pBiT1.3-N[CMV/LgBiT/Hygro]; The linker between LgBiT and FBXO44 is not described; also called N-terminally tagged FBXO44; source: HEK-293T, transiently transfected, in live cells; not shown: LgBiT, N-terminal, kept

Key:
[1] = system: HEK-293T-RGS2-FBXO44 NanoBit cells; assay: Cell viability assay (GF-AFC fluorescence) multiplexed with NanoBit; format: cell-based, Human; conditions: for Cell toxicity (in words) / Viability (% of Control): 100 μM; for Viability (% of Control): 16–18 hours
Protocol: The cells were plated in DMEM without phenol red (Gibco, #21063), 0.1% BSA in a white, tissue culture-treated 384-well plate (Perkin Elmer) at 15,000 cells/well, unless indicated otherwise, and allowed to attach. The plate was centrifuged at 212 × g for 30 seconds to aid in even cell adherence. Compound treatments were initiated 4–5 hours after plating. Following indicated treatment times, media was removed from the plate using BioTek ELx405 plate washer. Additionally, 10 μL of Hank’s Balanced Salt solution (HBSS) with 0.1% BSA was added to each well, followed by 5 μL of glycyl-phenylalanyl-aminofluorocoumarin (GF-AFC; MP Biomedicals) diluted 1:1000 in 100 mM HEPES. Plates were then centrifuged at 212 × g for 30 seconds and then incubated at 37 °C for 30 minutes. Fluorescence was detected on a Synergy Neo2 multimode plate reader (BioTek/Agilent).
Our primary assay using the HEK-293T RGS2-FBXO44 NanoBit cell line was extensively optimized to ensure maximum quality for screening. Coupling a fluorescent cell viability assay with our screen would allow us to rule out cytotoxic compounds while also hopefully reducing outliers from pipetting errors while plating cells. Thus, we multiplexed our NanoBit assay with cell viability using a cell-permeable fluorogenic protease substrate (glycyl-phenylalanyl-aminofluorocoumarin; GF-AFC; [Niles et al, 2007]), which can be combined with a luminescent readout without interfering with the luciferase signal. We previously utilized a similar multiplexing strategy in several screens ([Sjögren et al, 2012]; [Raveh et al, 2014]; [Sjögren et al, 2015]). We assessed and optimized treatment conditions (time, temperature, and reagent volume), cell density, buffer composition, and DMSO tolerance. In addition to the supplied proprietary LCS buffer (Promega), we also tested DMEM, 0.1% BSA, PBS, and HBSS (Supplemental Fig. 1A–C). […] The luminescent signal was stable up to 45 minutes after reagent addition, and we chose to run subsequent assays using 20 minutes of incubation time (Supplemental Fig. 1E). We also observed no effect on either viability or luminescence signal at DMSO concentrations <1% (Data not shown).
(§1) HEK-293T-RGS2-FBXO44 NanoBit cells were treated for 16–18 hours with compound at 100 μM. This relatively high concentration was chosen because of the challenging nature of our assay (intracellular PPI inhibition). Parental HEK-293T cells were used as a negative control. […] Based on these criteria, 97 compounds were identified as hits from our primary screen (6.1% initial hit rate). To confirm hits, the same assay was repeated in triplicate, which delivered 34 compounds that reached the threshold for inhibition in at least 2 replicates with <25% cell toxicity (Fig. 2C; Supplemental Table 1), thus rendering a final hit rate of 2.1%.

[2] = system: RGS2 protein levels; assay: PathHunter ProLabel assay of RGS2 protein levels in HEK-293T-RGS2-PL cells; format: cell-based, Human; conditions: 100 μM compound overnight (16–18 hours)
Protocol: The PathHunter ProLabel assay was run as described previously ([Sjögren et al, 2012]; [Raveh et al, 2014]; [Sjögren et al, 2015]). Briefly, HEK-293T-RGS2-PL cells were plated at 10,000 cells per well in a white, tissue culture-treated 384-well plate (Perkin Elmer) in DMEM without phenol red (#21063; Gibco) and 0.1% BSA. The cells were allowed to attach for 4 hours, followed by treatment with DMSO, 10 μM MG-132, or 100 μM of compounds. Prior to the detection of RGS2 protein levels by the ProLabel assay, a fluorescent viability assay was performed in the same well, as described above. PathHunter ProLabel reagents (DiscoveRx) were prepared according to the manufacturer’s directions and added to the plate, followed by incubation at room temperature for 1 hour. Luminescence corresponding to RGS2-PL protein levels was detected using a Synergy Neo2 multimode plate reader.
Compounds that inhibit the interaction between RGS2 and FBXO44 would protect RGS2 from proteasomal degradation and result in increased RGS2 protein levels. We therefore next assayed our 20 hits for their ability to increase RGS2 protein levels. We first performed western blot analysis of HEK-293T cells transfected with RGS2-HA and FLAG-FBXO44 and treated overnight (16–18 hours) with 100 μM compound, using proteasome inhibitor MG-132 as a positive control (10 μM). […] Although somewhat disappointing, given the limited sensitivity of western blot, we opted to also test the compounds using an alternate assay paradigm. Specifically, we used the PathHunter ProLabel assay (DiscoveRx), an enzyme complementation assay in which a protein of interest is tagged with a 4 kDa part of β-galactosidase (ProLabel; PL). The chemiluminescent signal in the assay correlates with relative levels of the PL-tagged target protein. We previously developed a stable HEK-293T-RGS2-PL cell line that was used in several high-throughput screening campaigns ([Sjögren et al, 2012]; [Raveh et al, 2014]; [Sjögren et al, 2015]). The PathHunter ProLabel assay offers a more quantitative measurement of protein levels, with a larger dynamic range than a western blot. We treated HEK-293T-RGS2-PL cells overnight (16–18 hours) with 100 μM compound and used 10 μM MG-132 as a positive control.
As a further validation of the action of compound 10, we assessed whether the ability to increase RGS2 protein levels was dependent on FBXO44 using the PathHunter ProLabel assay. HEK-293T-RGS2-PL cells transfected with either nontargeting (NT) or FBXO44-targeting siRNA were treated overnight (16–18 hours) with vehicle or compound 10 (100 μM). […] Thus, compound 10 increases RGS2 protein levels through a mechanism that is dependent on FBXO44.

[3] = biological target: T1, RGS2-FBXO44 interaction (Homo sapiens, UniProt P41220); assay: RGS2-FBXO44 NanoBit assay (HEK-293T RGS2-SmBiT/LgBiT-FBXO44 stable clone #6); format: cell-based; conditions: for % Inhibition @ 100 μM of RGS2-FBXO44 NanoBit signal: 16–18 hours, fresh powder, luminescence normalized to viability, vs nontreated cells; for IC50: concentrations 500 to 0.01 μM, RLU normalized to viability (RFU), read-out: IC50 (μM), inhibition of RGS2-FBXO44 NanoBit signal
T1 construct: expressed in transfected cells
T1 sequence (P41220 1-211): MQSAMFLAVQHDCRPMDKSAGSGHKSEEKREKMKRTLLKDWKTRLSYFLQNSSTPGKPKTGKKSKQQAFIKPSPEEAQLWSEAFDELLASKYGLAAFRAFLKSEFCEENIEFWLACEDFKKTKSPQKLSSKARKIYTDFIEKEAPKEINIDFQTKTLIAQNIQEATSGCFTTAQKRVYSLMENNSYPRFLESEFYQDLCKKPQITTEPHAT
Protocol: Nano-Glo Live Cell Substrate (LCS) was diluted 1:50 in HBSS to form a 2× stock, and then, 15 μL was added to each well. Plates were shaken on an orbital shaker at 500 rpm for 5 minutes protected from light and then spun down at 1000 rpm for 30 seconds. Plates were incubated at room temperature for 20 minutes, and then, luminescence was detected on a Synergy Neo2 multimode plate reader.
as §1
Fresh powders of 20 compounds were purchased and reassayed for their ability to inhibit the RGS2-FBXO44 NanoBit signal, using the same assay paradigm as in the primary screen (Fig. 3; Table 1). […] Nevertheless, all compounds were confirmed to inhibit the RGS2-FBXO44 NanoBit signal at this high concentration.
We next assessed the concentration-dependent effect of our 20 hits. Compounds were assayed at concentrations ranging from 500 to 0.01 μM. NanoBit luminescence (relative luminescence units) was normalized to viability (RFU) and presented as a percentage of untreated cells.

[4] = biological target: T2, RGS2-SmBiT (UniProt P41220 1-211); assay: split reporter (BiFC, NanoBiT); NanoBiT luminescence in live, transiently transfected HEK-293T cells; every combination of RGS2 and FBXO44 NanoBiT constructs; 15,000 cells/well, 2 hours incubation; conditions: partners not purified
T2 construct: Regulator of G protein signaling 2 (RGS2); cloned in-house into pBiT2.3-C[CMV/SmBiT/Blast]; The linker between RGS2 and SmBiT is not described; In the BiBiT construct RGS2-SmBiT and LgBiT-FBXO44 are expressed from one plasmid with a bidirectional CMV promoter; also called C-terminally tagged RGS2; source: HEK-293T, transiently transfected, in live cells; not shown: SmBiT, C-terminal, kept
T2 sequence (looked up): T1 sequence (P41220 1-211)

fold luminescence signal against the opposite tagging (RGS2-LgBiT with SmBiT-FBXO44) [4] [fold]	Molecule	Cell toxicity (in words) [1]	Viability (% of Control) ([1]; fresh powder)	RGS2 protein levels (PathHunter ProLabel) [2]	% Inhibition @ 100 μM of RGS2-FBXO44 NanoBit signal [3]	IC50 [3] [µM]	Cell toxicity at 100 μM ([1]; fresh powder) [%]
	Cc1cccc(C(=O)N2CCN(c3nc(C)cc(N4CCCCC4)n3)CC2)c1 [Compound 1]	significant toxicity	45.8∗∗∗∗ % of Control	significantly increased RGS2 protein levels	48.9∗∗∗∗ %	58	
	Cc1nc(N2CCN(C(=O)c3cccc(N(C)C)c3)CC2)cc(C(F)(F)F)n1 [Compound 2]		101.9 % of Control		68.0∗∗∗∗ %	72.2	
	Cc1cc(N2CCCC2)nc(N2CCN(C(=O)c3ccccc3C)CC2)n1 [Compound 3]		54.1∗∗∗∗ % of Control		40.6∗∗∗∗ %	78.9	
	CCOc1ccc(C(=O)NCc2ccnc(N3CCCCC3)n2)cc1 [Compound 4]		89.5 % of Control		47.2∗∗∗∗ %	38.2	
	CCOc1ccc(C(=O)Nc2ccc3c(c2)N(C(=O)C(C)C)CCC3)cc1OCC [Compound 5]		120.5 % of Control		44.5∗∗∗∗ %	151	
	CCOc1ccc(S(=O)(=O)N(Cc2cccn2C)C2CC2)cc1F [Compound 6]		116.6 % of Control		36.8∗∗∗∗ %	25.6	
	Cc1cc(C)c(C)c(S(=O)(=O)N2CCCC2)c1C [Compound 7]		91.7 % of Control		56.5∗∗∗∗ %	42.1	
	CCOc1ccc(S(=O)(=O)N2CCCCCC2)cc1C [Compound 8]		80.6∗∗∗∗ % of Control		86.1∗∗∗∗ %	9.2	
	O=S(=O)(C1CC1)N1CCCCC(c2ccc(Cl)cc2)C1 (stereo not drawn) [Compound 9]		103.6 % of Control		74.5∗∗∗∗ %	9.7	
	CCOc1cc(C)c(C)cc1S(=O)(=O)N1CCN(c2ccccc2)CC1 [Compound 11]		139.6 % of Control		49.6∗∗∗∗ %	29	
	O=C(NCC1(O)CCOc2ccccc21)C1(c2ccc(Cl)cc2)CCCC1 (stereo not drawn) [Compound 12]		116.6 % of Control		32.6∗∗∗∗ %	5.8	
	O=C(N(CCc1ccccc1)Cc1ccccn1)C12CC3CC(CC(C3)C1)C2 [Compound 13]	almost complete cell toxicity	7.5∗∗∗∗ % of Control				< 90
	COC1(CNC(=O)CCc2ccccc2)C2CC3CC(C2)CC1C3 (stereo not drawn) [Compound 14]		93.9 % of Control		70.7∗∗∗∗ %	67.4	
	Cc1cc(C)c(C)c(Cn2c(CCNC(=O)CCC(C)O)nc3ccccc32)c1C (stereo not drawn) [Compound 15]		68.5∗∗∗∗ % of Control		50.2∗∗∗∗ %	20.3	
	CCCCNC(=O)c1nnn(-c2ccccc2)c1C(C)C [Compound 16]		93.7 % of Control		75.8∗∗∗∗ %	54.8	
	CSc1ccccc1C(=O)NCc1cc(C2CC2)n(C2CCCC2)n1 [Compound 17]		69.2∗∗∗∗ % of Control		69.0∗∗∗∗ %	88.1	
	O=C(Cc1ccccc1Cl)N(CCc1cccs1)C1CCOCC1 [Compound 18]		81.5∗∗∗∗ % of Control		51.2∗∗∗∗ %	122	
	CCCOc1cc(S(=O)(=O)NCC2CCCO2)ccc1Cl (stereo not drawn) [Compound 19]		85.8∗∗ % of Control		74.8∗∗∗∗ %	39.6	
	CCc1nc(C)cn1S(=O)(=O)c1cc(OC)c(C)cc1C [Compound 20]		44.4∗∗∗∗ % of Control		67.3∗∗∗∗ %	4.4	
3.5	B1						
